This is an account of results in patent US20110098278A1 (priority 2009, published 2011).

“And” between values parts separate entries of the source, which are not always exact repeats. Equal entries are not always repeated. Structures can show the parent of a compound that is named as a salt. Where two headings read alike, the source gives them in different places.

Series [1] deals with T1, human acetylcholine esterase (Homo sapiens, UniProt P22303).
T1 construct: host or cells: HEK-293 cells
Nature of the series: Human acetylcholine esterase inhibition (human recombinant, HEK-293 cells; Ellman photometry). In kind it is biochemical. As to conditions: for inhibitory action toward human acetylcholine esterase (in words): in contrast to galantamine. (In general: In Ellman's method for cholinesterases, released thiocholine reacts with DTNB.)

Another series concerns ferret. The series can be described thus: Emetic activity (retching and vomiting) in the ferret.
A further series concerns Sprague Dawley rat. The series can be described thus: PICA behavior (kaolin consumption) in the Sprague Dawley rat as surrogate for emesis. It is filed as in vivo. The method, then:
This is a well established model for this purpose in the rat (Takeda N et al (1993) 45 817-21).
Once determined, a comparison was made of the effects of these doses on kaolin consumption over a 0-96 hour period in 24 h increments.
In detail groups of 10 male Sprague Dawley rats were habituated to kaolin for 3 days, then singly housed in grid-bottomed cages and habituated for a further 2 days prior to dosing. On the day of drug administration, the animals were food-deprived for 1 h prior to dosing. […] Access to a weighed quantity of food and kaolin was then restored. Food and kaolin was weighed 24, 48, 72 and 96 h after dosing.

In series [2] the test system is rabbit stomach circular smooth muscle. The series can be described thus: Ex vivo rabbit stomach circular smooth muscle, electrical field stimulation. As to conditions: rabbit stomach strips under EFS; 100 nM to 100 μM. In kind it is cell-based.
Series [3] concerns human stomach circular smooth muscle. The series can be described thus: Ex vivo human stomach circular smooth muscle, electrical field stimulation. It is filed as cell-based. As to conditions: human stomach strips under EFS; 100 nM to 100 μM.
Where [4] appears, read: human recombinant (HEK-293 cells), AMTCh 50 μM, 30 min./37° C., read-out: IC50 for inhibition of human acetyl choline esterase.
Where [5] appears, read: USP SGF pH 1.2, 37 deg. C., 0 hours.
Where [6] appears, read: USP SGF pH 1.2, 37 deg. C., 1 hour.
The mark [7] stands for this setting: USP SIF pH 6.8, 37 deg. C., 0 hours.
Where [8] appears, read: USP SIF pH 6.8, 37 deg. C., 2 hours.
Setting [9] is: 20 mg/kg p.o., 2 hr. observation, individual ferrets, listed as Galantamine valine ester tartrate.
[10] abbreviates: 20 mg (free base)/kg oral or similar molar dose.
The mark [11] stands for this setting: 40 mg/kg as base p.o., 2 hr. observation, individual ferrets.

T1 sequence (P22303 32-614): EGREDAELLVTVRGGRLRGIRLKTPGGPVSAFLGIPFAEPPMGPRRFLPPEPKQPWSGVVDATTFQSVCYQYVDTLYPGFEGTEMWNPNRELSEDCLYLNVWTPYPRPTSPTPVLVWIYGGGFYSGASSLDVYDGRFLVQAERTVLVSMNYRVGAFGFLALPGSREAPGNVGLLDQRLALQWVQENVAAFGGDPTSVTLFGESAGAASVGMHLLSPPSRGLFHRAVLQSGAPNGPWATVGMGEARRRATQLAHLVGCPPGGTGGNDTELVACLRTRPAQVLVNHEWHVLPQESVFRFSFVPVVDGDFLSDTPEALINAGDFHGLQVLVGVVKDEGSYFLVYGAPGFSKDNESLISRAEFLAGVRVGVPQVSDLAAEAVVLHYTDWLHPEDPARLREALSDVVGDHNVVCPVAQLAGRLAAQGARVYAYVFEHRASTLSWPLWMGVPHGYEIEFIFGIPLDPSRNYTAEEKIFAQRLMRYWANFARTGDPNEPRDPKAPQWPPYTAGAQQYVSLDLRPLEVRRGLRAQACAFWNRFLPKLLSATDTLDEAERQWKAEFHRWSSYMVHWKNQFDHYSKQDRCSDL

Broadly, the IC50 is the concentration at which inhibition is half-maximal. In the case of `COc1ccc2c3c1O[C@H]1C[C@@H](OC(=O)Nc4ccc(C(=O)O)cn4)C=C[C@@]31CCN(C)C2` [Galantamine para-amino nicotinic acid carbamate], the IC50 in series [1] (setting [4]) came out at 55 µM. Further, the “% Prodrug Remaining” value turned out to be 100% under setting [5], 100% under setting [6], 100% under setting [7] and 100% under setting [8].

As for `COc1ccc2c3c1O[C@H]1C[C@@H](OC(=O)N[C@@H](Cc4ccccc4)C(=O)O)C=C[C@@]31CCN(C)C2` [Galantamine phenylalanine carbamate, galantamine-(S)-phenylalanine carbamate trifluoroacetate], the “% Prodrug Remaining” value is reported as 94.7% under setting [5], 94.7% under setting [6], 95.9% under setting [7] and 95.6% under setting [8].

Take `COc1ccc2c3c1O[C@H]1C[C@@H](OC(=O)[C@@H](N)C(C)C)C=C[C@@]31CCN(C)C2` [Galantamine-(S)-valine ester, galantamine-(S)-valine ester tartrate]: the “Total number of individual incidences of: Retching” value (“Total number … Retching” for short) with ferret (20 mg/kg p.o. (galantamine free base content), 2 hr. observation, individual ferrets, listed as Galantamine valine ester tartrate) is 22 and 0 (6×) and 2 (2×) and 3 and 14. Also, the “Total number … Retching” value in the series with ferret (20 mg/kg p.o., 2 hr. observation, Mean) is listed as 3.9. In addition, in the series on ferret (setting [9]), the “Time (min) to onset of: Retching” value was 35 min and >120 min (6×) and 106 min and 11 min and 9 min and 6 min; the “Time (min) to onset of: Vomiting” value was 44 min and >120 min (9×) and 9 min; the “Total number of individual incidences of: Vomiting” value was 1 and 0 (9×) and 3.

As to `COc1ccc2c3c1O[C@H]1C[C@@H](OC(=O)CCCC(=O)Nc4ccc(C(=O)O)cc4)C=C[C@@]31CCN(C)C2` [Galantamine [glutaryl-PABA] ester, galantamine (glutaryl-PABA) ester trifluoroacetate], in series [1], the IC50 is above 100 µM and the “inhibitory action toward human acetylcholine esterase (in words)” value is recorded as “significantly less inhibitory actions”.

Regarding `COc1ccc2c3c1O[C@H]1C[C@@H](OC(=O)Nc4ccc(C(=O)O)cc4)C=C[C@@]31CCN(C)C2` [Galantamine para amino benzoic acid carbamate], in series [1] (setting [4]), the IC50 was found to be 32 µM. The “% Prodrug Remaining” value was 100-% under setting [5], 100% under setting [6], 100% under setting [7] and 100% under setting [8].

For the compound `[Cl-].[Li+]` [LiCl], the “Cumulative mean ± SD kaolin consumption” value is given as 3.33 ± 1.98 g in the series on Sprague Dawley rat (positive control, 130 mg base/kg po, 24 h); 3.71 ± 2.22 g in the series on Sprague Dawley rat (positive control, 130 mg base/kg po, 48 h); 4.42 ± 2.82 g in the series on Sprague Dawley rat (positive control, 130 mg base/kg po, 72 h); 4.82 ± 3.11 g with Sprague Dawley rat (positive control, 130 mg base/kg po, 96 h).

Take galantamine-(S)-valine ester tartrate: in the series on ferret (setting [10]), the “animals dosed that retched” value came to 45% and the “animals dosed that vomited” value is on record as 18%.

Consider `COc1ccc2c3c1O[C@H]1C[C@@H](OC(=O)CCC(=O)N[C@H](C(=O)O)C(C)C)C=C[C@@]31CCN(C)C2.O=C(O)C(F)(F)F` [Galantamine succinyl valine ester, galantamine-[succinyl-(S)-valine]ester trifluoroacetate], for which, in series [1], the half-inhibitory concentration (IC50) is above 100 µM. Also, the “inhibitory action toward human acetylcholine esterase (in words)” value in series [1] is recorded as “significantly less inhibitory actions”. For the same compound, the “stimulation of smooth muscle contractions (change in force production)” value in series [2] and in series [3] was “complete absence of any such effect” throughout. In addition, the “Cumulative mean ± SD kaolin consumption” value in the series on Sprague Dawley rat (11.75 mg galantamine free base content/kg po, 24 h) came to 0.14 ± 0.20 g; in the series with Sprague Dawley rat (11.75 mg galantamine free base content/kg po, 48 h), 0.29 ± 0.24 g; in the series on Sprague Dawley rat (11.75 mg galantamine free base content/kg po, 72 h), 0.48 ± 0.27 g; in the series on Sprague Dawley rat (11.75 mg galantamine free base content/kg po, 96 h) it was 0.57 ± 0.40 g; in the series on Sprague Dawley rat (23.5 mg galantamine free base content/kg po, 24 h), 0.31 ± 0.53 g; with Sprague Dawley rat (23.5 mg galantamine free base content/kg po, 48 h) it was 0.61 ± 0.69 g. Also, the “Cumulative mean ± SD kaolin consumption” value in the series with Sprague Dawley rat (23.5 mg galantamine free base content/kg po, 72 h) is 0.95 ± 0.96 g; in the series on Sprague Dawley rat (23.5 mg galantamine free base content/kg po, 96 h), 1.25 ± 1.31 g; in the series with Sprague Dawley rat (47 mg galantamine free base content/kg po, 24 h) it was 0.15 ± 0.18 g; with Sprague Dawley rat (47 mg galantamine free base content/kg po, 48 h), 0.40 ± 0.18 g; in the series with Sprague Dawley rat (47 mg galantamine free base content/kg po, 72 h), 0.63 ± 0.28 g; in the series with Sprague Dawley rat (47 mg galantamine free base content/kg po, 96 h) it was 0.91 ± 0.45 g. The “Cumulative mean ± SD kaolin consumption” value with Sprague Dawley rat (47 mg galantamine free base content/kg po, 96 h, listed as GSVE) is given as 0.91 ± 0.45 g. In addition, the “kaolin consumption compared with vehicle alone (in words)” value with Sprague Dawley rat (oral, up to 47 mg (galantamine free base content)/kg) was “little evidence for any increase in kaolin consumption”. Also, the “Time (min) to onset of: Retching” value is on record as above 120 min with ferret (setting [11]) and above 120 min in the series with ferret (40 mg/kg as base p.o., Mean). Moreover, the “Time (min) to onset of: Vomiting” value is given as above 120 min in the series on ferret (setting [11]) and above 120 min with ferret (40 mg/kg as base p.o., Mean). The “Total number … Retching” value came out at 0 in the series with ferret (setting [11]) and 0 in the series on ferret (40 mg/kg as base p.o., Mean). The “Total number of individual incidences of: Vomiting” value in the series with ferret (setting [11]) is 0; with ferret (40 mg/kg as base p.o., Mean) it was 0. Also, the “retching or vomiting (in words)” value in the series with ferret (oral 40 mg galantamine (free base equivs)/kg) is “no retching or vomiting at all was observed”.

Take `COc1ccc2c3c1O[C@H]1C[C@@H](OC(=O)Nc4cccc(C(=O)O)c4)C=C[C@@]31CCN(C)C2` [Galantamine meta amino benzoic acid carbamate]: the IC50 in series [1] (setting [4]) came out at 26 µM. In addition, the “% Prodrug Remaining” value was 100% under setting [5], 100% under setting [6], 100% under setting [7] and 100% under setting [8].

Consider “galantamine (glutaryl-PABA) ester trifluoroacetate [Galantamine [glutaryl-PABA] ester]”, for which the “% Prodrug Remaining” value was found to be 96% (FaSSIF (pH 6.5), 37 deg. C., 0 hours); 86% (FaSSIF (pH 6.5), 37 deg. C., 2 hour); 85% (FeSSIF (pH 6.5), 37 deg. C., 0 hours); 90% (FeSSIF (pH 6.5), 37 deg. C., 2 hours).

As to `COc1ccc2c3c1O[C@H]1C[C@@H](OC(=O)NCc4ccc(C(=O)O)cc4)C=C[C@@]31CCN(C)C2` [Galantamine para-amino methyl benzoic acid carbamate], in series [1] (setting [4]), the IC50 came out at 46 µM. Further, the “% Prodrug Remaining” value is 100% under setting [5], 100% under setting [6], 100% under setting [7] and 100% under setting [8].
